Test system: infected lesion (Candida albicans, left thigh)
Type: in vivo, mice (C57/BL)
Details: Candida-inoculated mice, day 8; GMCSF intramuscularly 3 days before PET; FDG 2 mCi/Kg via tail vein, PET 3 hours later; p<0.05 vs pre-GMCSF
Method: Candida albicans was suspended in saline to achieve a concentration of 2.5×10^9 yeast cells/ml. Three mice (C57/BL, Jackson Laboratories, Bar Harbor, Me.) were injected intramuscularly in the left thigh with 5×10^8 Candida albicans cells suspended in 0.2 ml of saline. The right thigh was injected with 0.2 ml of saline as a control.
Imaging of the animals was performed on days 5 and 8 after Candida inoculation. […] GMCSF was administered intramuscularly immediately after the first PET images were obtained (3 days prior to the second PET imaging).

In the case of “GMCSF: granulocyte-macrophage colony stimulating factor, immune modulator; FDA approved under the tradename Leukine”, the “FDG uptake within the infected lesion, post-GMCSF” value is reported as 8150 nCi/cc.
